Data set [1] has as its system VSV-eGFP-SARS-CoV-2. The data set can be described thus: microbe, parasite or virus in culture. The format is cell-based. Conditions: for inhibition at 1 µM: read-out: inhibition of VSV-eGFP-SARS-CoV-2 infection, 1 μM; for inhibition at 5 µM: read-out: inhibition of VSV-eGFP-SARS-CoV-2 infection, 5 μM; for inhibition at 10 µM: read-out: inhibition of VSV-eGFP-SARS-CoV-2 infection, 10 μM; for pIC50: read-out: IC50 against VSV-eGFP-SARS-CoV-2 infection.

Data set [2] concerns rVSV-G-GFP. The format is cell-based, vesicular stomatitis virus (VSV).
For data set [3], the system named is VSV-eGFP-SARS-CoV-2. The format is cell-based. Conditions: 1 μM.
In data set [4] the test system is ACE2-Spike dependent syncytia formation. The format is cell-based, human. Conditions: IC50 concentration; for initiation of pseudoviral infection: control 7 hpi; for initiation of syncytia formation: imaging up to 24 hpi, control 12 hpi.
Data set [5] relates to SiHa ACE2 Cerulean H2B mCherry cells.
[6] abbreviates: Severe acute respiratory syndrome coronavirus 2, SiHa.

pIC50: −log10 of the molar value. “Also recorded” adds a separate entry of the source. Structures can show the parent of a compound that is named as a salt. Where two headings read alike, the source gives them in different places. Numbered stars: 1 amine (or outer) side, 2 acyl side, 3 side chain; on linkers, the order of the positions; unused ones are H or OH. Bridge positions count the residues as written; N and C are the ends. Square brackets hold non-standard residues; d marks the D form. Peptide text beside a SMILES is read from it. I, II: the chains in the order shown. Actinocin(9to1) = Cc1c2oc3c(C)ccc(C(=O)[*:1])c3nc-2c(C(=O)[*:2])c(N)c1=O; NMeV = CN[C@H](C(=O)O)C(C)C; Sar = CNCC(=O)O

By inhibition is commonly meant the relative decrease from the control value, in per cent. Regarding `CC(=O)O[C@H]1C[C@H](O[C@H]2[C@@H](O)C[C@H](O[C@H]3[C@@H](O)C[C@H](OC4CC[C@@]5(C)[C@H](CC[C@@H]6[C@@H]5CC[C@]5(C)[C@@H](C7=CC(=O)OC7)CC[C@]65O)C4)O[C@@H]3C)O[C@@H]2C)O[C@H](C)[C@H]1O[C@@H]1O[C@H](CO)[C@@H](O)[C@H](O)[C@H]1O` (some centres unmarked) [Lanatoside A], in data set [1] (setting [6]), the inhibition at 1 µM came to 81%, the inhibition at 5 µM was found to be 97% and the inhibition at 10 µM turned out to be 98%.

`CC1=C2C(=CC(C)(C)[C@@H]2O)C(=O)[C@](C)(O)C12CC2` [Illudin M]: in data set [1] (setting [6]), the inhibition at 1 µM was 31%, the inhibition at 5 µM turned out to be 54% and the inhibition at 10 µM worked out at 73%.

As to `COc1cccc2c1C(=O)c1c(O)c3c(c(O)c1C2=O)C[C@@](O)(C(C)=O)C[C@@H]3O[C@H]1C[C@H](N)[C@H](O)[C@H](C)O1` [Daunorubicin hydrochloride, reference compound], in data set [1] (setting [6]), the inhibition at 1 µM is -16%, the inhibition at 5 µM stood at 40% and the inhibition at 10 µM worked out at 41%.

As for `C[C@H](N)C(=O)N[C@@H]1[C@H]2C(=C(O)C[C@@H](O)[C@@H]2O)C(=O)O[C@]1(C)C(Cl)Cl` [Bactobolin], in data set [1] (setting [6]), the inhibition at 1 µM is 56%, the inhibition at 5 µM was determined as 99% and the inhibition at 10 µM turned out to be 100%.

In general, pIC50 refers to the IC50 on a negative log10 scale, so that one unit is a factor of ten. Casirivimab: in data set [1], the “inhibition of VSV-eGFP-SARS-CoV-2 infection (in words)” value was “inhibition of VSV-eGFP-SARS-CoV-2 infection” and the negative logarithm of the IC50 (pIC50) was 10.35.

With `CC[C@](C)(O)C(=O)O[C@H]1C(=O)O[C@@H]2C[C@H]3C(C)=C[C@H](O)[C@@H](O)[C@]3(C)[C@H]3[C@]4(O)OC[C@]32[C@@H]1[C@@H](C)[C@H]4O` [Glaucarubin], in data set [1] (setting [6]), the inhibition at 1 µM was -7%, the inhibition at 5 µM was -1% and the inhibition at 10 µM is 33%.

As for `CCCCCC1=C/C(=C/c2[nH]c(-c3ccc[nH]3)cc2OC)N=C1C` [Prodigiosin], in data set [1] (setting [6]), the inhibition at 1 µM was 86%, the inhibition at 5 µM came to 98% and the inhibition at 10 µM is 100%.

With `CC[C@]1(O)C[C@H]2CN(CCc3c([nH]c4ccccc34)[C@@](C(=O)OC)(c3cc4c(cc3OC)N(C=O)[C@H]3[C@@](O)(C(=O)OC)[C@H](OC(C)=O)[C@]5(CC)C=CCN6CC[C@]43[C@@H]65)C2)C1` [Vincristine sulfate, reference compound], in data set [1] (setting [6]), the inhibition at 1 µM was 32%, the inhibition at 5 µM is 38% and the inhibition at 10 µM is 39%.

Consider `CC[C@H](C)[C@H]1NC(=O)[C@@H](NC(=O)[C@@H](CC(C)C)N(C)C(=O)[C@@H]2CCCN2C(=O)C(C)O)[C@@H](C)OC(=O)[C@H](Cc2ccc(OC)cc2)N(C)C(=O)[C@@H]2CCCN2C(=O)[C@H](CC(C)C)NC(=O)[C@@H](C)C(=O)[C@H](C(C)C)OC(=O)C[C@@H]1O` (some centres unmarked) [Didemnin B], for which the “rVSV-G-GFP infection inhibition (in words)” value in data set [2] is “could inhibit the VSVG infection; also recorded: rVSV-G-GFP inhibition”. In data set [1] (setting [6]), the pIC50 was 6.72, the inhibition at 5 µM was determined as 100% and the inhibition at 10 µM worked out at 100%. Moreover, in data set [3], the “inhibitory activity after preincubation of cells with natural product (in words)” value was “having inhibitory activity; also recorded: could inhibit viral infection”. In addition, in data set [4], the “initiation of pseudoviral infection” value is recorded as 8 hpi and the “initiation of syncytia formation” value is listed as “no syncytia was observed”. In data set [4] (listed as Didemin B), the “initiation of syncytia formation” value is on record as “inhibits syncytia formation”. In data set [5], the “cellular toxicity (H2B mCherry nuclear condensation)” value was “exhibited toxicity at higher doses” and the “toxicity at IC50 dose” value is recorded as “minimum toxicity”.

Take `CC(=O)O[C@@]1(C)C[C@@H]([C@H](O)CC2CC(=O)NC(=O)C2)C(=O)[C@@H](C)C1` [Acetoxycycloheximide]: in data set [2], the “rVSV-G-GFP infection inhibition (in words)” value is given as “moderate level of inhibition”. Further, in data set [1] (setting [6]), the pIC50 was 6.19, the inhibition at 5 µM worked out at 100% and the inhibition at 10 µM amounted to 100%. In addition, in data set [4], the “initiation of pseudoviral infection” value is 10 hpi and the “initiation of syncytia formation” value stood at 21 hpi.

In the case of `CC(=O)O[C@H]1C[C@H](O[C@H]2[C@@H](O)C[C@H](O[C@H]3[C@@H](O)C[C@H](O[C@H]4CC[C@@]5(C)[C@H](CC[C@@H]6[C@@H]5C[C@@H](O)[C@]5(C)[C@@H](C7=CC(=O)OC7)CC[C@]65O)C4)O[C@@H]3C)O[C@@H]2C)O[C@H](C)[C@H]1O[C@@H]1O[C@H](CO)[C@@H](O)[C@H](O)[C@H]1O` [Allocor], in data set [1] (setting [6]), the inhibition at 1 µM stood at 49%, the inhibition at 5 µM is 89% and the inhibition at 10 µM was found to be 92%.

With `CSC[S@+]([O-])C[C@H](CO)NC(=O)/C=C/c1c(C)[nH]c(=O)[nH]c1=O` [Sparsomycin], in data set [1] (setting [6]), the inhibition at 1 µM is -2%, the inhibition at 5 µM came out at 80% and the inhibition at 10 µM was found to be 94%.

As to `Cc1c2oc3c(C)ccc(C(=O)N[C@@H]4C(=O)N[C@H](C(C)C)C(=O)N5CCC[C@H]5C(=O)N(C)CC(=O)N(C)[C@@H](C(C)C)C(=O)O[C@@H]4C)c3nc-2c(C(=O)N[C@@H]2C(=O)N[C@H](C(C)C)C(=O)N3CCC[C@H]3C(=O)N(C)CC(=O)N(C)[C@@H](C(C)C)C(=O)O[C@@H]2C)c(N)c1=O` [Dactinomycin, reference compound] (I: T[dV]P[Sar][NMeV] / II: T[dV]P[Sar][NMeV]; ester I:1-I:C, II:1-II:C; linker I:N-II:N via Actinocin(9to1)), in data set [1] (setting [6]), the inhibition at 1 µM came to 39%, the inhibition at 5 µM came to 56% and the inhibition at 10 µM is 58%.

Consider `CO[C@H]1/C=C\C=C(/C)C(=O)NC2=CC(=O)C(N)=C(C[C@@H](C)C[C@H](OC)[C@H](O)[C@@H](C)/C=C(\C)[C@@H]1OC(N)=O)C2=O` [17-Aminodemethoxygeldanamycin], for which the “rVSV-G-GFP infection inhibition (in words)” value in data set [2] was “moderate inhibition”. Further, the pIC50 in data set [1] was 6.25. For the same molecule, in data set [3], the “inhibition of VSV-eGFP-SARS-CoV-2 infection after pre-treatment of cells” value turned out to be 50% and the “inhibitory activity after preincubation of cells with natural product (in words)” value is “having inhibitory activity; also recorded: moderate level of viral entry inhibition”. Further, in data set [4], the “initiation of pseudoviral infection” value stood at 8 hpi and the “initiation of syncytia formation” value stood at 12 hpi.

As to `C[C@H]1CCC/C=C/[C@@H]2C[C@H](O)C[C@H]2[C@H](O)/C=C/C(=O)O1` [Brefeldin A], in data set [1] (setting [6]), the inhibition at 1 µM was determined as 66%, the inhibition at 5 µM worked out at 82% and the inhibition at 10 µM is 86%.

With `C[C@@H]1O[C@@H](O[C@@H]2C=C3CC[C@@H]4[C@H](CC[C@]5(C)[C@@H](c6ccc(=O)oc6)CC[C@]45O)[C@@]3(C)CC2)[C@H](O)[C@H](O)[C@H]1O` [Proscillaridin, reference compound], the “rVSV-G-GFP infection inhibition (in words)” value in data set [2] is “moderate inhibition”. Also, in data set [1] (setting [6]), the negative logarithm of the IC50 (pIC50) was 6.66, the inhibition at 5 µM stood at 98% and the inhibition at 10 µM worked out at 99%. Also, in data set [4], the “initiation of pseudoviral infection” value is on record as 8 hpi and the “initiation of syncytia formation” value is reported as 16 hpi.

Take `COC1=C(N)C(=O)c2nc(-c3nc(C(=O)O)c(C)c(-c4ccc(OC)c(OC)c4O)c3N)ccc2C1=O` [Streptonigrin]: the “rVSV-G-GFP infection inhibition (in words)” value in data set [2] was “could inhibit the VSVG infection; also recorded: rVSV-G-GFP inhibition”. Also, in data set [1] (setting [6]), the negative-log IC50 (pIC50) was 6.42, the inhibition at 5 µM was determined as 100% and the inhibition at 10 µM was 100%. Moreover, in data set [4], the “initiation of pseudoviral infection” value is listed as 8 hpi and the “initiation of syncytia formation” value worked out at 12 hpi. Also, the “toxicity at IC50 dose” value in data set [5] is on record as “minimum toxicity”.

For the molecule `COc1ccc(/C=C/C(=O)c2ccccc2)cc1` [4-Methoxychalcone, reference compound], in data set [1] (setting [6]), the inhibition at 1 µM was -11%, the inhibition at 5 µM was -7% and the inhibition at 10 µM was 26%.

Regarding `C[C@@H]1O[C@@H](O[C@@H]2C=C3CC[C@@H]4[C@H](CC[C@]5(C)[C@@H](c6ccc(=O)oc6)CC[C@]45O)[C@@]3(C)CC2)[C@H](O)[C@H](O)[C@H]1O[C@@H]1O[C@H](CO)[C@@H](O)[C@H](O)[C@H]1O` [Scillaren A], the “rVSV-G-GFP infection inhibition (in words)” value in data set [2] is “moderate level of inhibition”. Further, the pIC50 in data set [1] was 6.39. In data set [4], the “initiation of pseudoviral infection” value came out at 8 hpi and the “initiation of syncytia formation” value worked out at 22 hpi.
